According to patent US6417235B2, “Method and use of α-amino-β-mercapto-ethane derivatives as dicarbonyl scavengers for treatment of conditions resulting from protein, lipid, and DNA damage” (University of Kentucky Research Foundation, priority 2000, dated 2002):

Tests used:
[1] = Alpha-dicarbonyl trapping followed by HPLC
Method: Phenylglyoxal (10 mM) and D-penicillamine (20 mM) were reacted in 50 mM KH2PO4 buffer, pH 7.4 at room temperature. The progress of he reaction was monitored by HPLC analysis of reaction aliquots at 254 nm. After 40 minutes reaction time more than 90% conversion of the phenylglyoxal peak into a single product peak of higher retention time was observed. […] UV detection was at 254 nm. As shown by the HPLC analysis of the reaction system shown in FIG. 7, phenyglyoxal is fully reacted with D-penicillamine within 5 minutes. […] The reaction kinetics were studied at a phenylglyoxal concentration of […] and at 250 and 500 micromolar carbonyl scavenger concentration (D-penicillamine, aminoguanidine). Over the course of the reaction, aliquots were analyzed by HPLC. In the case of D-penicillamine, which required shorter sampling periods, reaction aliquots were taken every 20 seconds, and kept on dry ice until analysis. The initial reaction rates of phenylglyoxal with the test compounds were monitored by following the disappearance of phenylglyoxal over time. […] The measured first order rate constant (kst) was then used to calculate the second order rate constant (by applying the following equation: […]-carbonyl scavenger}. The calculated second order rate constants determined at the two reactant ratios were in good agreement.

[2] = test system: glycation of histone H1 by ADP-ribose; test: Screening of inhibitors of nonoxidative advanced glycation: AGE-fluorescence on 96 well-microtiter plate; type: biochemical, calf; details: (± SEM, n = 2); for AGE-fluorescence (day 5): complete reaction under air
Method: All operations were carried out at 4° C. Chromatin was isolated from fresh calf thymus by extraction with 0.14 M NaCl, 0.05 M Na2S2O5, as described earlier in Wondrak supra. After repeated extraction with 5% HCl)4 and centrifugation (1500 g), histone H1 was precipitated from the supernatant by addition of TCA (20% final concentration v/v). The histone H1 precipitate was colleted by centrifugation (12,000 g) and deionized water. After extensive dialysis (MW cut-off: 12,000-14,000) against water for 48 h, the sample was lyophilized and the protein was stored at 4° C. SDS-PAGE (12%) was used to analyze the purity of the preparation.
Earlier studies have reported that D-penicillamine inhibits collagen crosslinking and AGE fluorescence caused by sugars (McPherson, J. D., Shilton, B. H., and Walton, D. J. 1988. Role of Fructose in Glycation and Cross-Linking of Proteins. Biochemistry 27, 1901-1907) and reaction of D-penicillamine with aldehyde groups of proteins (Deshmukh, K., and Nimm, M. E. 1969. A Defect in the Intramolecular and Intermolecular Cross-linking of Collagen caused by Penicillamine. J. Biol. Chem. 244, 1787-1795). A number of different penicillamines and penicillamine derivatives were tested to determine the inhibition of AGE-fluorescence on histone H1 at physiological pH. The reaction conditions for the glycation of histone H1 by ADP-ribose mimic physiological conditions to the extent possible. Reaction mixtures contain 1.5 mg/ml histone Hl, 1.0 mM ADP-ribose, 50 mM potassium phosphate buffer, pH 7.4, 37° C. D,L-penicillamine; L-penicillamine; D-penicllamine; D-penicillaminedisulfide and N,S- isopropylidine-D-penicillamine were tested in concentrations of 1,5 and 10 mM. The detected reaction parameter representing the accumulation of protein damage is AGE-fluorescence ((λex=[…]), which is suppressed by the presence of a compound with inhibitory activity. Generation of AGE-type fluorescence (λex=355 nm; λem=405 nm) was monitored over time at 37° C; which is in the range of the broad excitation/emission maxima of AGE compounds. To allow high throughput sample processing on 96 well microtiter plates, the reaction volumes are 300 μl. Fluorescence on the 96-well microtiter plates was measured using an automated microtiter fluorescence reader. Fluorescence of the 1 ml samples of the glycation reaction mixtures was measured using a Hitachi F-200 fluorescence spectophotometer, and prior to measurement the protein sample is dialyzed extensively against water (MW cutoff=[…]), lyophilized and reconstituted in reaction buffer. For inhibitor screening the plate is read on a Fluoroskan II plate reader (Titertek, ICN) at the excitation/emission wavelengths set forth above at a bandwidth of 35 nm.
The following screening scheme is used (see Table 1): AGE-fluorescence is determined at the beginning and after five days of incubation. Test compounds that are inherently fluorescent (designated false negatives) were identified by the initial fluorescence measurement (See Table 1, NADH for example). Since these are compounds of uncertain activity, they are diverted directly to the second stage of the screen. Aminoguanidine, a known glycation inhibitory agent, was used as a positive control for suppression of the increase on AGE-fluorescence. After five days incubation and plate reading, fluorescence quenchers (designated false positives) are excluded by measuring the quenching activity of the test compound by addition of AGE modified protein having known fluorescence activity to one microtiter plate well containing test compound in the complete reaction mixture. For this, AGE-BSA is used as the AGE-type fluorescence standard. This AGE-BSA test excludes false positives compounds that function by fluorescence quenching. If fluorescence quenching occurs the test compound is excluded from further screening. […] The protein is visualized by silver staining of the gel. […]

SMILES: CC(C)(S)[C@@H](N)C(=O)O [D-Penicillamine]
- time until phenylglyoxal is fully reacted ([1]; HPLC analysis, FIG. 7): ≤ 5 min
- conversion of the phenylglyoxal peak into a single product peak ([1]; phenylglyoxal 10 mM, D-penicillamine 20 mM, pH 7.4, room temperature, after 40 minutes): more than 90%
- AGE-fluorescence (day 0) ([2]; compound 1 mM): 1.2 (0.0) relative units
- AGE-fluorescence (day 5) ([2]; compound 1 mM): 11 (0.6) relative units
- AGE-fluorescence (day 0) ([2]; compound 5 mM): 1.1 (0.1) relative units
- AGE-fluorescence (day 5) ([2]; compound 5 mM): 2.9 (0.3) relative units
- AGE-fluorescence (day 0) ([2]; compound 10 mM): 1.1 (0.0) relative units
- AGE-fluorescence (day 5) ([2]; compound 10 mM): 1.4 (0.1) relative units
